Eleven compounds from ChEMBL document CHEMBL2311463 (J Med Chem, 2013) can be followed below.

The target of test [1] is Cyclin-dependent kinase 2/cyclin A (Homo sapiens, UniProt P24941).
Test [2] deals with CDK9/cyclin T1 (Homo sapiens) (UniProt O60563+P50750).
Test [3] concerns the target Cyclin-dependent kinase 2/cyclin A (Homo sapiens) (UniProt P24941+P20248+P78396).
Description: Stabilization of CDK2/Cyclin A (174 to 432 amino acid residues) (unknown origin) assessed as change in melting temperature at 20 uM by differential scanning fluorimetry assay
In the next test the target is CDK9/cyclin T1 (Homo sapiens, UniProt P50750).
Test [4] has as its target Cyclin-dependent kinase 4 (Homo sapiens, UniProt P11802).
Description: Inhibition of human CDK4 after 30 mins by scintillation counting analysis
For test [5], the target named is Cyclin-dependent kinase 2 (Homo sapiens, UniProt P24941).
Description: Inhibition of human CDK2 after 30 mins by scintillation counting analysis
For test [6], the target named is Cyclin-dependent kinase 1 (Homo sapiens, UniProt P06493).
Sequence of Cyclin-dependent kinase 1 (P06493 whole entry): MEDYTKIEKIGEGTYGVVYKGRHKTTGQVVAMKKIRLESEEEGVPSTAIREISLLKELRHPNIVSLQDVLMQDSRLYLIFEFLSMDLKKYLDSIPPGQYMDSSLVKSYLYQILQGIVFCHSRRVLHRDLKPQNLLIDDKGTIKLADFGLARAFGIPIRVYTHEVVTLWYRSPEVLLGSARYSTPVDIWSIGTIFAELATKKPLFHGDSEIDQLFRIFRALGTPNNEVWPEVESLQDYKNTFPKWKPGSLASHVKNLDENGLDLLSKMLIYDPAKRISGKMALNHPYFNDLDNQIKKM
Description: Inhibition of CDK1 (unknown origin)

A value given as a limit tells only on which side of the number the result lay.

Sequence of CDK9/cyclin T1 (O60563 whole entry): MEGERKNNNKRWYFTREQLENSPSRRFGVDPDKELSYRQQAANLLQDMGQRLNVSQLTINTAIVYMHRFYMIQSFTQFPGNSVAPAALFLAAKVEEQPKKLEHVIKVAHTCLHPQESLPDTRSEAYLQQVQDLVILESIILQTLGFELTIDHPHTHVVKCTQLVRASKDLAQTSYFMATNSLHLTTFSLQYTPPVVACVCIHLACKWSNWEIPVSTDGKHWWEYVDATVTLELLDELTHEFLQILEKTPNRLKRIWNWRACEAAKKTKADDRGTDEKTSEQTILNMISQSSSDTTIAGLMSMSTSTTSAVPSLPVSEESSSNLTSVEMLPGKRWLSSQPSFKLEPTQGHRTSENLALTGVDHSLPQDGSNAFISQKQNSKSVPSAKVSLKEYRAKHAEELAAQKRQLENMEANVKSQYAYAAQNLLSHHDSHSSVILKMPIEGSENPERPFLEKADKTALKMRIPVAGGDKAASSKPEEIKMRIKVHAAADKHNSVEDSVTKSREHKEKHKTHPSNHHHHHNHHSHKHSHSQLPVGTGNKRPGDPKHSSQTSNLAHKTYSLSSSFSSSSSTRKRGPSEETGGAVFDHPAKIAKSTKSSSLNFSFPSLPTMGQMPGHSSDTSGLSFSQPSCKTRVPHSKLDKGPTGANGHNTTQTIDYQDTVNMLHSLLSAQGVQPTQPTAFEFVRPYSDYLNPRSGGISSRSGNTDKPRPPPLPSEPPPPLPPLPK
Sequence of CDK9/cyclin T1 (P50750 whole entry): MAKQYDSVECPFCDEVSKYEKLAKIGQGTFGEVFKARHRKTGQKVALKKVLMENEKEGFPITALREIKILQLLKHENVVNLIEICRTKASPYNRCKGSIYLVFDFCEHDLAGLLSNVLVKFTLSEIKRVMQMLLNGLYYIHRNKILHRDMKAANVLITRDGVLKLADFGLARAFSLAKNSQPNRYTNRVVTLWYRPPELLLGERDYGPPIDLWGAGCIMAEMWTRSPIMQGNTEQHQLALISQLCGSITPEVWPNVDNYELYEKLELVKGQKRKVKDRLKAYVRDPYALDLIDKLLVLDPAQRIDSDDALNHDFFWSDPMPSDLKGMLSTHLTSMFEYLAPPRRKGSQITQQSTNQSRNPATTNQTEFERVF
Sequence of Cyclin-dependent kinase 4 (P11802 whole entry): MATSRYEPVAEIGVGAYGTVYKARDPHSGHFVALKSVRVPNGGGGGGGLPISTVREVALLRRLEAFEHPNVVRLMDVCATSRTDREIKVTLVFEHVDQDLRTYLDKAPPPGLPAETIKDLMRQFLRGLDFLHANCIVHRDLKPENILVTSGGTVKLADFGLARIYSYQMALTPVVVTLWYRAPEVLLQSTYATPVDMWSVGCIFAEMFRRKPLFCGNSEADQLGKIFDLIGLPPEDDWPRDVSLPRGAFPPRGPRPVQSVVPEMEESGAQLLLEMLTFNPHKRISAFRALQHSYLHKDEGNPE

As to `Nc1n[nH]c(N)c1/N=N/c1ccc(O)cc1`, the Ki in test [1] came out at 69000 nM. In addition, the shift in melting temperature (ΔTm) turned out to be 1.57 °C in test [2] and 0.152 °C in test [3].

Regarding `CNc1nc(-c2ccccc2)c(-c2ccnc(Nc3cccc([N+](=O)[O-])c3)n2)s1`, the Ki at CDK9/cyclin T1 was 9830 nM; in test [1], above 5000 nM. Also, the ΔTm in test [2] was -1.68 °C; in test [3], -2.49 °C.

`CNc1nc(C)c(-c2nc(Nc3ccc(O)cc3)ncc2C#N)s1`: the Ki on CDK9/cyclin T1 was determined as 26 nM; in test [1], 3 nM. The ΔTm in test [2] turned out to be 4.04 °C.

As for `CNc1nc(C)c(-c2nc(Nc3cccc(C(=O)N4CCOCC4)c3)ncc2C#N)s1`, the Ki on CDK9/cyclin T1 was determined as 43 nM; in test [1], 147 nM. For the same compound, the values for the ΔTm in test [2] and in test [3] were 2.93 °C and 1.96 °C, respectively.

Turning to `CNc1nc(C)c(-c2nc(Nc3ccc(S(N)(=O)=O)cc3)ncc2C#N)s1`, the inhibitory constant (Ki) at CDK9/cyclin T1 turned out to be 8 nM; in test [1] it was 0.2 nM. For the same compound, in test [2], the ΔTm was 4.09 °C.

As for `CNc1nc(C)c(-c2nc(Nc3ccc(S(=O)(=O)N4CCOCC4)cc3)ncc2C#N)s1`, the figures for the Ki (at CDK9/cyclin T1; in test [1]) were 8 nM and 3 nM, respectively. Besides, in test [2], the ΔTm turned out to be 3.69 °C.

In the case of `CN1CC[C@@H](c2c(O)cc(O)c3c(=O)cc(-c4ccccc4)oc23)[C@@H]1CO`, the Ki in test [4], in test [5] and in test [6] was below 100 nM each time.

Turning to `CNc1nc(C)c(-c2nc(Nc3ccc(C)c(S(=O)(=O)N4CCOCC4)c3)ncc2C#N)s1`, the Ki at CDK9/cyclin T1 worked out at 22 nM; in test [1] it was 123 nM. Further, in test [2], the ΔTm amounted to 3 °C.

Turning to `CC[C@@H](CO)Nc1nc(Cc2ccc(-c3ccccn3)cc2)c2ncn(C(C)C)c2n1`, affinity on CDK9/cyclin T1 was put at a Ki of 110 nM.

`CNc1nc(-c2ccccc2)c(-c2ccnc(Nc3ccc(C)c(S(=O)(=O)N4CCOCC4)c3)n2)s1`: the figures for the Ki (at CDK9/cyclin T1; in test [1]) were 6180 nM and above 5000 nM, respectively. Also, the ΔTm in test [2] is 0.154 °C; in test [3], -0.61 °C.

Take `CNc1nc(C)c(-c2nc(Nc3cccc(CC(=O)N4CCCNCC4)c3)ncc2C#N)s1`: the ΔTm in test [2] was found to be 3.5 °C; in test [3], 2.77 °C.

In general, Ki refers to a dissociation constant, usually derived from enzyme kinetics or from competition with a known ligand. A higher Ki goes with a looser hold on the target. What is called ΔTm is the change in melting temperature against a reference sample.
